Assay results taken from ChEMBL document CHEMBL5543111, “Uncovering PROTAC Sensitivity and Efficacy by Multidimensional Proteome Profiling: A Case for STAT3” (J Med Chem, 2024).
Activity calls are given as the source filed them. The rule behind the calls is not given here.

Legend:
A549 [1] = test: Upregulation of p53 protein expression in human A549 cells at 10 to 100 nM; type: functional, cell-based; details: dose 10-100 nM, time 3-24 hrs, TDE = time-dependent effect
[2] = biological target: Protein cereblon/Bromodomain-containing protein 4 (Homo sapiens) (UniProt O60885+Q96SW2); test: PROTAC activity at CRBN/BRD4 in human A549 cells assessed as degradation of BRD4 protein level at 100 nM incubated for 24 hrs; type: cell-based
Chain of Protein cereblon/Bromodomain-containing protein 4 (Homo sapiens) (Q96SW2 whole entry, looked up, other chains not shown): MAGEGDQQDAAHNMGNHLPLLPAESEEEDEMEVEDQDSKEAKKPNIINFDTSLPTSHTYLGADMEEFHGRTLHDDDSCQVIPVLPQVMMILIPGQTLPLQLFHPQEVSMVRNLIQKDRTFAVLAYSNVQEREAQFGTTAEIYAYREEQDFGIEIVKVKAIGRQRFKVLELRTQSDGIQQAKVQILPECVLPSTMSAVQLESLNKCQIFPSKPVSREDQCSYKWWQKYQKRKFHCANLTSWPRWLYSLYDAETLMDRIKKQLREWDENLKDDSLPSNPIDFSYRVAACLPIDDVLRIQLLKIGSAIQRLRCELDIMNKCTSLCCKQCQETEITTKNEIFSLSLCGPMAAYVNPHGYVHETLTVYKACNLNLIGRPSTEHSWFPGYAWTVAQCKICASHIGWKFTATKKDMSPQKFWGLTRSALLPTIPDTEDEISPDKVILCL

A549 [3] = test: Upregulation of p21 protein expression in human A549 cells at 100 nM measured after 24 hrs; type: functional, cell-based
[4] = biological target: Protein cereblon/Bromodomain-containing protein 2 (Homo sapiens) (UniProt P25440+Q96SW2); test: PROTAC activity at CRBN/BRD2 in human A549 cells assessed as degradation of BRD2 protein level at 100 nM incubated for 24 hrs; type: cell-based
Chain of Protein cereblon/Bromodomain-containing protein 2 (Homo sapiens) (P25440 whole entry, looked up): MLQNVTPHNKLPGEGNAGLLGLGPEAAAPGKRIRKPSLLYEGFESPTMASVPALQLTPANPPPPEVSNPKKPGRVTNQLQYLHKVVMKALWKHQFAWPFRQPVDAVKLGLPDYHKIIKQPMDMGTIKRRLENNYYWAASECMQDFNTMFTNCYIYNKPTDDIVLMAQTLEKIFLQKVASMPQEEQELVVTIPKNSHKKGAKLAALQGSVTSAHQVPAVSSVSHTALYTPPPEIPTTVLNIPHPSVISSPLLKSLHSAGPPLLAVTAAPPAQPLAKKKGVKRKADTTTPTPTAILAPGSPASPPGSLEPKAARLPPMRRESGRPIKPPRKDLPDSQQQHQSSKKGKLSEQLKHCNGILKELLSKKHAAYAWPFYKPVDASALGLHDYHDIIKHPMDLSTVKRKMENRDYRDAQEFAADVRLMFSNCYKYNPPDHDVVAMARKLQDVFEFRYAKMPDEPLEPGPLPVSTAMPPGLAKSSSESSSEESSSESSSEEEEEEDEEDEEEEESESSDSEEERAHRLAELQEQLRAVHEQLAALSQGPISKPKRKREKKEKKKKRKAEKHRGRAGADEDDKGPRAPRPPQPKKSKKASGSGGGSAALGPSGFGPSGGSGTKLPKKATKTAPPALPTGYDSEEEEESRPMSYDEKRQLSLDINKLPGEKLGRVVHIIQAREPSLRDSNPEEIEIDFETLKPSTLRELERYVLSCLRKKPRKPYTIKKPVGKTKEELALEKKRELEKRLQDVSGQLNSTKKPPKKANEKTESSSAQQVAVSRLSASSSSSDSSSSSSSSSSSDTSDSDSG
Chain of Protein cereblon/Bromodomain-containing protein 2 (Homo sapiens) (Q96SW2 whole entry, looked up): as the sequence (Q96SW2 whole entry, looked up, other chains not shown) above

A549 [5] = test: Upregulation of p53 protein expression in human A549 cells measured after 3 to 24 hrs; type: functional, cell-based; details: dose 10-100 nM, time 3-24 hrs
[6] = biological target: Protein cereblon/Bromodomain-containing protein 3 (Homo sapiens) (UniProt Q15059+Q96SW2); test: PROTAC activity at CRBN/BRD3 in human A549 cells assessed as degradation of BRD3 protein level at 100 nM incubated for 24 hrs; type: cell-based
Chain of Protein cereblon/Bromodomain-containing protein 3 (Homo sapiens) (Q15059 2-726 limits assumed): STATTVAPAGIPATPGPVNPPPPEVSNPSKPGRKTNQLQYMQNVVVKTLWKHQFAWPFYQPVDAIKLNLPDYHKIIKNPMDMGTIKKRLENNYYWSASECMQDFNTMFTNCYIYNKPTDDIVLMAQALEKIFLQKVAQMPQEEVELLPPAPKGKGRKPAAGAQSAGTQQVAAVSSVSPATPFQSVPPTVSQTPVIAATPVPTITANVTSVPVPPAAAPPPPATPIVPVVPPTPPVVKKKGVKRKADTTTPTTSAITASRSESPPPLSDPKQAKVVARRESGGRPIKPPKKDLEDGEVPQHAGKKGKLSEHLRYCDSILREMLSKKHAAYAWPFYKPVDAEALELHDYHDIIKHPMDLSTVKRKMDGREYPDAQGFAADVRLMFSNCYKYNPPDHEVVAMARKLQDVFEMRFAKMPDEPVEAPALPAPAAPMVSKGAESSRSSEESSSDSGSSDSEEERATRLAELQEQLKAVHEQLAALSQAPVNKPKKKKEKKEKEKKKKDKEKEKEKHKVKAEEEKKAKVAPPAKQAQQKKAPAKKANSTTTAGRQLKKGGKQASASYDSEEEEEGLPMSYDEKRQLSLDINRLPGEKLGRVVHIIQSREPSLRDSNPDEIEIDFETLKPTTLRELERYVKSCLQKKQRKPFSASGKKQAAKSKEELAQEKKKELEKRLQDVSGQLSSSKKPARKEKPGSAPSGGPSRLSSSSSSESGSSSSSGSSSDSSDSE
Chain of Protein cereblon/Bromodomain-containing protein 3 (Homo sapiens) (Q96SW2 whole entry partner): as the sequence (Q96SW2 whole entry, looked up, other chains not shown) above

Activity [2]: Active | Activity [4]: Active | Activity [6]: Active
SMILES: CCn1nc(C2CC2)cc1Nc1nc(C(=O)NCCCCCc2cccc3c2CN(C2CCC(=O)NC2=O)C3=O)nc2[nH]c3cc(-c4c(C)noc4C)c(OC)cc3c12 (stereo unspecified)
Activity (A549 [1]): Tde | Activity (A549 [3]): Active | Activity (A549 [5]): Dose-Dependent Effect
